Laboratory results as given in patent publication US20090318385A1, “Pyrazolopyride derivative and phosphodiesterase ( pde) inhibitors containing the same as active ingredient” (priority 2006, published 2009).

What was measured:
PDE4B catalytic domain = molecular target: T1, PDE4B catalytic domain (Homo sapiens, UniProt Q07343); assay: Phosphodiesterase inhibitory activity (recombinant PDE4Bcat, [3H]cAMP); assay type: biochemical; conditions: 30° C. for 20 minutes, read-out: IC50 (μmol/L) PDE4
T1 construct: The cDNA of PDE4B catalytic domain (hereinafter abbreviated as Cat) was isolated from human RNA by RT-PCR; made in house; host or cells: Sf9 insect cells (baculovirus, Bac-to-Bac)
T1 sequence (Q07343 330-659 limits assumed): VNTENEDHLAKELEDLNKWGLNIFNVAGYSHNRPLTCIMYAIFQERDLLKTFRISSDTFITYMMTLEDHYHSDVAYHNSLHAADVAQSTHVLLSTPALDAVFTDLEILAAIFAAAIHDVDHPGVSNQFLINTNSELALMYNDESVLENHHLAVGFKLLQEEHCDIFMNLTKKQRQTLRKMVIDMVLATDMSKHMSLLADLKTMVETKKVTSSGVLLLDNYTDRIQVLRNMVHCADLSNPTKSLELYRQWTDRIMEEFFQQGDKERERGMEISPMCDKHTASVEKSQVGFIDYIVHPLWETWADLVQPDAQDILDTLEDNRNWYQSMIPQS
Text: The cDNA of PDE4B catalytic domain (hereinafter abbreviated as Cat) was isolated from human RNA by RT-PCR. The isolated cDNA fragments were inserted into Sf9 insect cells using Gateway system (product of Invitrogen Corporation) and Bac-to-Bac (registered trademark) Baculovirus Expression system (product of Invitrogen Corporation) to express a target PDE protein. The recombinant PDE4Bcat was purified from the culture supernatants or cell extracts of Sf9 cells expressing high levels of the PDE protein by ion exchange chromatography and was used for the following experiments.
A 4 mmol/L solution of each test compound was serially diluted four-fold with a 15% DMSO solution to prepare solutions with concentrations of 15 nmol/L to 4 mmol/L (the final concentrations used in the experiments were 1.5 nmol/L to 400 μmol/L). 10 μL of the prepared test compound solutions, [^3H] cAMP diluted with a buffer solution (40 mmol/L Tris-HCl (pH: 7.4), 10 mmol/L MgCl2), and 40 μL of the recombinant human PDE protein (2×10^−6 units, 1 unit is defined as the amount of PDE that breaks down 1 μmol/L of cAMP in one minute under the conditions of a pH of 7.5 and 30° C.) were added to a 96-well plate. The mixtures were reacted at 30° C. for 20 minutes. Then, the resultant mixtures were reacted at 65° C. for 2 minutes. Subsequently, […] of 1 mg/mL 5′-nucleotidase (Crotalusatrox venom, product of Sigma) was added to the mixtures, and the mixtures were reacted at 30° C. for 10 minutes. After completion of the reaction, 200 μL of a solution of Dowex (300 mg/mL Dowex 1x8-400 (product of Sigma Aldrich), 33% ethanol) was added to the mixtures, and the mixtures were shaken at 4° C. for 20 minutes. Subsequently, 200 μL of MicroScint 20 (product of Packard) was added to the mixtures, and measurement was performed using a scintillation counter (Topcount, product of Packard). IC50 values were calculated using Graph Pad Prism v3.03 (product of GraphPad Software). When 1 μmol/L>the IC50 value≧0.1 μmol/L, the results were represented by “+.” When 0.1 μmol/L>the IC50 value, the results were represented by “++.”

[1] = tested on: histamine-induced bronchoconstriction; assay: Histamine-induced airway contraction reaction in guinea pigs; assay type: in vivo; conditions: test compound 1 mg/kg i.v., histamine 12.5 μg/kg i.v., airflow 30 seconds after administration
Method: Guinea pigs were anesthetized with pentobarbital (30 mg/kg, i.p.). A cannula for intravenous administration, a cannula for collecting blood and measuring blood pressure, and a tracheal cannula were inserted into the left external jugular vein, right internal carotid artery, and trachea, respectively. The guinea pigs were maintained on artificial respiration under the conditions of 60 times/min and 10 mL/kg/stroke. The airflow from the side branch of the tracheal cannula was measured by a bronchospasm transducer (Ugo-Basile) and recorded on a computer via Power Lab (ADInstruments Japan). The guinea pigs were immobilized with gallamine (10 mg/kg, i.v.), and histamine was administered at 10-minute intervals (12.5 μg/kg, i.v.). After the histamine-induced bronchoconstriction was constant, one of the test compounds (1 mg/kg, i.v.) dissolved in DMSO was administered. We examined the inhibitory action of test compounds on histamine-induced bronchoconstriction 30 seconds after compounds administration. Bronchoconstriction was recorded as the value of airflow, and the results were represented by the ratio of the maximum value of the histamine-induced airflow 30 seconds after the administration to the maximum value of the airflow before the administration. When the inhibition ratio≧90%, the results were represented by “+++.” When 90%>the inhibition ratio≧70%, the results were represented by “++.” When 70%>the inhibition ratio≧30%, the results were represented by “+.”

[2] = tested on: total number of leukocytes in bronchoalveolar lavage fluid after LPS inhalation; assay: LPS acute inflammation model in rats; assay type: in vivo; conditions: Rattus norvegicus, Leukocyte, po, 3 mg/kg orally one hour before LPS inhalation, total leukocytes in BALF 3 hours after LPS inhalation, read-out: Inhibition ratio
Method: 3 mg/kg of the compounds were orally administered to rats one hour before inhalation of lipopolysaccharide (LPS) from E. coli serotype 055:B5, rats were inhalted nebulizing LPS solution (50 mL) by nebulizer for 30 minutes. Then, 3 hours after the LPS inhalation, rats were euthanized with 20% urethane (5 ml/rat, i.p.) 5 ml of physiological saline for bronchoalveolar lavage was injected into the bronchoalveolar space through the airway, and the bronchoalveolar space was washed 3 times using a 5 mL syringe. This procedure was repeated twice, and the solution was collected as bronchoalveolar lavage fluid (BALF). The collected BALF was centrifuged at 1,200 rpm and 4° C. for 10 minutes (Hirtachi; himac CR 5 DL). The sediment was re-suspended in 10 mL of a 0.1% bovine serum albumin-physiological saline, and an equivalent amount of Turk's solution was added to the suspension to stain leukocytes. The total number of leukocytes was counted under a microscope to determine the inhibition ratio. When the inhibition ratio≧60%, the results were represented by “++.” When 60%>the inhibition ratio≧30%, the results were represented by “+.”

| IC50 (PDE4B catalytic domain) | melting point | SMILES | Inhibition ratio [1] | inhibition in vivo at 3 mg/kg [2] |
| --- | --- | --- | --- | --- |
| < 0.1 µmol/L | – | COc1ccc(C(=O)Cc2ccncc2)c2cc(C(F)(F)F)nn12 [80 (90), 1-(7-Methoxy-2-trifluoromethylpyrazolo[1,5-a]pyridin-4-yl)-2-(pyridin-4-yl)ethanone] | +++ (When the inhibition ratio≧90%, the results were represented by “+++.”) | – |
| 0.1 to 1 µmol/L | – | COc1ccc(C(O)Cc2ccncc2)c2cc(C(F)(F)F)nn12 (stereo not shown) [Example 77, 1-(7-Methoxy-2-trifluoromethylpyrazolo[1,5-a]pyridin-4-yl)-2-(pyridin-4-yl)ethanol] | + (When 70%>the inhibition ratio≧30%, the results were represented by “+.”) | – |
| < 0.1 µmol/L | – | COc1ccc(/C(=C/c2ccncc2)c2ccccc2)c2cc(C(F)(F)F)nn12 [Example 84, (E)-7-methoxy-4-[1-phenyl-2-(pyridin-4-yl)vinyl]-2-trifluoromethylpyrazolo[1,5-a]pyridine] | – | – |
| < 0.1 µmol/L | – | COc1ccc(C(Cc2ccncc2)c2ccccc2)c2cc(C(F)(F)F)nn12 (stereo not shown) [Example 86, 7-Methoxy-4-[1-phenyl-2-(pyridin-4-yl)ethyl]-2-trifluoromethylpyrazolo[1,5-a]pyridine] | – | – |
| < 0.1 µmol/L | – | COc1ccc(C(O)Cc2c(Cl)cncc2Cl)c2cc(C(F)(F)F)nn12 (stereo not shown) [Example 87, 2-(3,5-Dichloropyridin-4-yl)-1-(7-methoxy-2-trifluoromethylpyrazolo[1,5-a]pyridin-4-yl)ethanol] | – | – |
| < 0.1 µmol/L | – | COc1ccc(CCc2cc[n+]([O-])cc2)c2cc(C(F)(F)F)nn12 [Example 91, 4-(2-(7-Methoxy-2-(trifluoromethyl)pyrazolo[1,5-a]pyridin-4-yl)ethyl)pyridine 1-oxide] | – | ≥ 60% |
| < 0.1 µmol/L | – | COc1ccc(C(=O)Cc2c(Cl)c[n+]([O-])cc2Cl)c2cc(C(F)(F)F)nn12 [Example 92, 3,5-Dichloro-4-(2-(7-methoxy-2-(trifluoromethyl)pyrazolo[1,5-a]pyridin-4-yl)-2-oxoethyl)pyridine 1-oxide] | – | ≥ 60% |
| < 0.1 µmol/L | 157 to 161 °C (dec.) | COc1ccc(C(=O)Cc2cc[n+]([O-])cc2)c2cc(C(F)(F)F)nn12 [Example 93, 4-(2-(7-Methoxy-2-(trifluoromethyl)pyrazolo[1,5-a]pyridin-4-yl)-2-oxoethyl)pyridine 1-oxide] | – | ≥ 60% |
| – | 158 to 160 °C (dec.) | COc1ccc(CCc2c(Cl)cncc2Cl)c2cc(C(F)(F)F)nn12 [Example 95, 4-(2-(3,5-Dichloropyridin-4-yl)ethyl)-7-methoxy-2-(trifluoromethyl)pyrazolo[1,5-a]pyridine] | – | – |
| – | 188 to 191 °C | COc1ccc(C(=O)Cc2ccncc2Cl)c2cc(C(F)(F)F)nn12 [Example 97, 2-(3-Chloropyridin-4-yl)-1-(7-methoxy-2-(trifluoromethyl)pyrazolo[1,5-a]pyridin-4-yl)ethanone] | – | – |
| < 0.1 µmol/L | 220 to 223 °C | CNc1ccc(C(=O)Cc2c(Cl)cncc2Cl)c2cc(C(F)(F)F)nn12 [Example 99, 2-(3,5-Dichloropyridin-4-yl)-1-(7-(methylamino)-2-(trifluoromethyl)pyrazolo[1,5-a]pyridin-4-yl)ethanone] | – | – |
| – | 234 to 238 °C | CN(C)c1ccc(C(=O)Cc2c(Cl)cncc2Cl)c2cc(C(F)(F)F)nn12 [Example 100, 2-(3,5-Dichloropyridin-4-yl)-1-(7-(dimethylamino)-2-(trifluoromethyl)pyrazolo[1,5-a]pyridin-4-yl)ethanone] | – | – |
| – | 153 to 156 °C | COc1ccc(CCc2c(Cl)cncc2Cl)c2cc(C(F)F)nn12 [Example 102, 4-(2-(3,5-Dichloropyridin-4-yl)ethyl)-2-(difluoromethyl)-7-methoxypyrazolo[1,5-a]pyridine] | – | – |
| – | 121 to 123 °C | COc1ccc(CCc2ccncc2)c2cc(C(F)F)nn12 [Example 104, 2-(Difluoromethyl)-7-methoxy-4-(2-(pyridin-4-yl)ethyl)pyrazolo[1,5-a]pyridine] | – | – |
| – | 208 to 211 °C (dec.) | COc1ccc(C(=O)Cc2c(Cl)cncc2Cl)c2cc(C(F)F)nn12 [Example 107, 2-(3,5-dichloropyridin-4-yl)-1-(2-(difluoromethyl)-7-methoxypyrazolo[1,5-a]pyridin-4-yl)ethanone] | – | – |
| < 0.1 µmol/L | – | COc1ccc(C(=O)Cc2c(Cl)c[n+]([O-])cc2Cl)c2cc(C(F)F)nn12 [Example 108, 3,5-Dichloro-4-(2-(2-(difluoromethyl)-7-methoxypyrazolo[1,5-a]pyridin-4-yl)-2-oxoethyl)pyridine 1-oxide] | – | ≥ 60% |
| – | 186 to 191 °C (dec.) | COc1ccc(C(=O)Cc2ccncc2)c2cc(C(F)F)nn12 [Example 109, 1-(2-(Difluoromethyl)-7-methoxypyrazolo[1,5-a]pyridin-4-yl)-2-(pyridin-4-yl)ethanone] | – | – |
| – | 191 to 194 °C (dec.) | COc1ccc(C(=O)Cc2ccncc2Cl)c2cc(C(F)F)nn12 [Example 111, 2-(3-Chloropyridin-4-yl)-1-(2-(difluoromethyl)-7-methoxypyrazolo[1,5-a]pyridin-4-yl)ethanone] | – | – |
| < 0.1 µmol/L | – | COc1ccc(C(=O)Cc2ccncc2)c2cc(C3CC3)nn12 [Example 121, 1-(2-Cyclopropyl-7-methoxypyrazolo[1,5-a]pyridin-4-yl)-2-(pyridin-4-yl)ethanone] | – | ≥ 60% |
| < 0.1 µmol/L | – | COc1ccc(C(=O)Cc2c(Cl)cncc2Cl)c2c(Cl)c(C3CC3)nn12 [Example 122, 1-(3-Chloro-2-cyclopropyl-7-methoxypyrazolo[1,5-a]pyridin-4-yl)-2-(3,5-dichloropyridin-4-yl)ethanone] | – | ≥ 60% |
| – | 196 to 200 °C | CNc1ccc(C(=O)Cc2c(Cl)cncc2Cl)c2cc(C3CC3)nn12 [Example 123, 1-(2-Cyclopropyl-7-(methylamino)pyrazolo[1,5-a]pyridin-4-yl)-2-(3,5-dichloropyridin-4-yl)ethanone] | – | – |
| – | 216 to 220 °C | CN(C)c1ccc(C(=O)Cc2c(Cl)cncc2Cl)c2cc(C3CC3)nn12 [Example 124, 1-(2-Cyclopropyl-7-(dimethylamino)pyrazolo[1,5-a]pyridin-4-yl)-2-(3,5-dichloropyridin-4-yl)ethanone] | – | – |
| < 0.1 µmol/L | – | COc1ccc(C(=O)Cc2c(Cl)c[n+]([O-])cc2Cl)c2cc(C#N)nn12 [Example 142, 3,5-Dichloro-4-(2-(2-cyano-7-methoxypyrazolo[1,5-a]pyridin-4-yl)-2-oxoethyl)pyridine 1-oxide] | – | ≥ 60% |
